According to PubChem BioAssay (NCI):
Where “and” joins values, the source holds several entries; their conditions need not be identical. Identical values can stand only once.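 Interpolation was linear, between the two tested concentrations surrounding the appropriate level; five concentrations were tested over 48 hours in 96-well plates. TGI is the concentration that stops growth completely.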

How the values were obtained:
Experiment in all cases: NCI tumour cell line growth inhibition, 48 h
DU-145 prostate = system: DU-145 prostate
OVCAR-5 ovarian = system: OVCAR-5 ovarian
MCF7 breast = system: MCF7 breast
SK-OV-3 ovarian = system: SK-OV-3 ovarian
SR leukemia = system: SR leukemia
COLO 205 colon = system: COLO 205 colon
RXF 393 renal = system: RXF 393 renal
HS 578T breast = system: HS 578T breast
NCI-H522 lung = system: NCI-H522 lung
ACHN renal = system: ACHN renal
HT29 colon = system: HT29 colon
T-47D breast = system: T-47D breast
CAKI-1 renal = system: CAKI-1 renal
NCI-H23 lung = system: NCI-H23 lung
M14 melanoma = system: M14 melanoma
TK-10 renal = system: TK-10 renal
SK-MEL-5 melanoma = system: SK-MEL-5 melanoma
NCI/ADR-RES ovarian = system: NCI/ADR-RES ovarian
SK-MEL-2 melanoma = system: SK-MEL-2 melanoma

Compound	TGI (DU-145 prostate)	TGI (OVCAR-5 ovarian)	TGI (MCF7 breast)	TGI (SK-OV-3 ovarian)	TGI (SR leukemia)	TGI (COLO 205 colon)	TGI (RXF 393 renal)	TGI (HS 578T breast)	TGI (NCI-H522 lung)	TGI (ACHN renal)	TGI (HT29 colon)	TGI (T-47D breast)	TGI (CAKI-1 renal)	TGI (NCI-H23 lung)	TGI (M14 melanoma)	TGI (TK-10 renal)	TGI (SK-MEL-5 melanoma)	TGI (NCI/ADR-RES ovarian)	TGI (SK-MEL-2 melanoma)
N/C(CCSCCSCC/C(N)=N\O)=N\O	> 100 µM	> 100 µM	> 100 µM	> 100 µM	> 100 µM	> 100 µM	> 100 µM	> 100 µM	> 100 µM	> 100 µM	> 100 µM	> 100 µM	> 100 µM	> 100 µM	> 100 µM	> 100 µM	> 100 µM	> 100 µM	
Cc1nc2ccccc2n1Cc1nnc(-c2ccccc2)o1	> 100 µM	> 100 µM	> 100 µM	> 100 µM	> 100 µM	> 100 µM	> 100 µM	> 100 µM	> 100 µM	> 100 µM	> 100 µM	> 100 µM		> 100 µM	> 100 µM	> 100 µM	> 100 µM	> 100 µM	> 100 µM
Cc1nc2ccc(S(=O)(=O)O)cc2c(=O)n1-c1ccc(C(=O)NN2C(=O)C(Cl)C2c2cccs2)cc1 (stereo not given)	> 100 µM	> 100 µM	> 100 µM	> 100 µM	> 100 µM	> 100 µM	> 100 µM	> 100 µM	> 100 µM	> 100 µM	> 100 µM	> 100 µM	> 100 µM	> 100 µM	41.4 µM	> 100 µM	> 100 µM	> 100 µM	54.1 µM
O=C1C(Cl)=CC2(C=C1Cl)CCN=c1c(O)c3c(c(O)c12)=NC=N3	> 100 µM	> 100 µM	48.9 µM	> 100 µM	36.5 µM	46.7 µM	70.7 µM	> 100 µM	51.8 µM	> 100 µM	71.8 µM	> 100 µM	> 100 µM	82.5 µM	> 100 µM	> 100 µM	30.8 µM	> 100 µM	63.1 µM
COC(=O)c1sc(=S)sc1SCc1cccc(CSc2sc(=S)sc2C(=O)OC)c1	> 100 µM	> 100 µM	> 100 µM	51.3 µM	> 100 µM	> 100 µM	34.3 µM	> 100 µM	> 100 µM	> 100 µM	> 100 µM	> 100 µM	> 100 µM	> 100 µM	> 100 µM	96.9 µM	> 100 µM	> 100 µM	> 100 µM
Cc1cn([C@H]2C[C@@H](N3C(=O)c4ccccc4C3=O)[C@@H](CO[Si](C)(C)C(C)(C)C)O2)c(=O)[nH]c1=O	> 100 µM	> 100 µM	> 100 µM	> 100 µM	> 100 µM	> 100 µM	52 µM	> 100 µM	> 100 µM	> 100 µM	51.7 µM	> 100 µM	> 100 µM	> 100 µM	> 100 µM	> 100 µM	> 100 µM	> 100 µM	> 100 µM
O=[N+]([O-])c1ccc2c3c1[C@@H]1O[C@@H]1c1cccc(c1-3)[C@@H]1O[C@H]21	8.72 µM	31.3 µM	> 100 µM	44.3 µM	> 100 µM	23.1 µM	16.8 µM	19.7 µM	3.33 µM		14.7 µM	12 µM	3.2 µM	11.6 µM	9.9 µM	> 51.2 µM	27.2 µM	> 38.5 µM	> 23.7 µM
CN(Cc1cccc2ccsc12)/N=C\c1ccc(Cl)cc1	> 100 µM	> 100 µM	> 100 µM	> 100 µM	> 100 µM	> 100 µM	> 100 µM	> 100 µM	> 100 µM	> 100 µM	> 100 µM	> 100 µM	> 100 µM	> 100 µM	> 100 µM	> 100 µM	41.6 µM	> 100 µM	
c1ccc(C(NC2=NCCO2)C2CC2)cc1 (stereo not given)	> 100 µM	> 100 µM	> 100 µM	> 100 µM	> 100 µM	> 100 µM	> 100 µM	> 100 µM	> 100 µM	> 100 µM	> 100 µM	> 100 µM		> 100 µM	> 100 µM	> 100 µM	> 100 µM	> 100 µM	> 100 µM
CC1(c2ccc(Cl)cc2)C=C(c2ccc(Cl)cc2)C(C#N)=C(C(C#N)C#N)N1 (stereo not given)	29.6 µM	33 µM	37.3 µM	30.8 µM	73.8 µM	32.8 µM	38.2 µM	29.4 µM		30.5 µM	32.8 µM	46.9 µM	32.2 µM	32.3 µM	36 µM	33.8 µM	28.2 µM	39.9 µM	47.1 µM
Cc1ccc2c(c1C)CC1(Cc3ccc(C)c(C)c3C1=O)C2=O (stereo not given)	> 100 µM	> 100 µM	> 100 µM		> 100 µM	> 100 µM	54.3 µM	> 100 µM	> 100 µM	> 100 µM		> 100 µM	> 100 µM		> 100 µM	> 100 µM	> 100 µM	> 100 µM	> 100 µM
N#CCC(=O)N/N=C\C(O)C(O)C(O)C(O)CO (stereo not given)	> 100 µM	> 100 µM	> 100 µM	> 100 µM	> 100 µM		> 100 µM	> 100 µM	> 100 µM	> 100 µM	> 100 µM	> 100 µM	> 100 µM	> 100 µM	> 100 µM	> 100 µM	> 100 µM	> 100 µM	> 100 µM
N#CC1=C(S)N(C2OC(CO)C(O)C(O)C2O)C(c2ccccc2)=CC1c1ccco1 (stereo not given)	> 100 µM	> 100 µM	> 100 µM		> 100 µM		> 100 µM	> 100 µM	> 100 µM		> 100 µM	99.5 µM	> 100 µM	> 100 µM	> 100 µM	> 100 µM	> 100 µM	> 100 µM	> 100 µM
Cc1[nH]c(=O)c2oc3cc4ccccc4cc3c2c1C(=O)O	> 10 µM	> 10 µM	> 10 µM	> 10 µM	> 10 µM		> 10 µM	> 10 µM	> 10 µM	> 10 µM	> 10 µM	> 10 µM		> 10 µM	> 10 µM	> 10 µM		> 10 µM	> 10 µM
COC(=O)C1CC2CC1C1C2SC(F)(F)C1(F)F (stereo not given)	> 100 µM	> 100 µM	> 100 µM	> 100 µM	> 100 µM	> 100 µM	> 100 µM	> 100 µM	> 100 µM	> 100 µM		> 100 µM	> 100 µM		> 100 µM	> 100 µM	> 100 µM	> 100 µM	> 100 µM
O=c1oc2ccccc2c(-c2ccc(O)cc2)c1Oc1ccccc1	> 63.9 µM	70 µM	> 100 µM	> 100 µM	> 100 µM	> 69.6 µM	> 74 µM	18.2 µM		> 100 µM	> 100 µM	> 100 µM	> 75.7 µM	18.7 µM	32.1 µM	> 96.7 µM	41.2 µM	> 100 µM	18.5 µM
Cc1cnc2[nH]c(-c3cccc4ccccc34)cc(=O)c2c1	> 100 µM	> 100 µM	41.6 µM	0.0952 µM	> 100 µM	0.00496 µM	0.0923 µM	> 100 µM	0.00072 µM	64.6 µM	0.0121 µM and 0.0273 µM	> 100 µM	> 100 µM	> 100 µM	> 100 µM			> 100 µM	> 100 µM
COC(=O)c1ccc(CCC2=CC(=O)C=CC2=O)cc1	33.8 µM	33.8 µM	30 µM		5.82 µM	26.6 µM	25.3 µM	75.2 µM	3.14 µM	20.4 µM	53.4 µM	8.79 µM	13.6 µM	39.4 µM	32.4 µM	33 µM	30.2 µM	61.2 µM	30.4 µM
C=C1CC[C@@H]2[C@](C)(COC(=O)CCC(=O)OC)CCC[C@@]2(C)[C@@H]1CCC1=CC(=O)OC1	> 100 µM	> 100 µM	> 100 µM	> 100 µM	51.4 µM	> 100 µM		> 100 µM	> 100 µM	> 100 µM	> 100 µM	73 µM	81.3 µM	> 100 µM	> 100 µM	> 100 µM	> 100 µM	> 100 µM	> 100 µM
Nc1nccc(NCC2(CO)CC(CCc3ccccc3)C2)n1 (stereo not given)	30.6 µM	34.2 µM	22.2 µM		52.6 µM	29.5 µM	36 µM	52.9 µM	26 µM	32.6 µM	23.9 µM	27.6 µM	28.6 µM	41.4 µM		25.5 µM	16.9 µM	75.7 µM	32.8 µM
